The text below walks through data of patent US12077503B2, “Substituted cyclic amides and their use as herbicides” (FMC CORPORATION, priority 2015, dated 2024).

What all share (format): in vivo
One experiment deals with corn (Zea mays). Put plainly: Test A postemergence. The note with it: Zea mays, post-emergence, 240 h, postemergence; for plant injury at 125 g/ha: 125 g ai/ha, visual injury vs untreated controls after approx. 10 d, 0 = no effect, 100 = complete control, read-out: Corn plant response rating (0 to 100 scale); for plant injury at 500 g/ha: 500 g ai/ha, 0 to 100 scale, 0 is no effect, 100 is complete control, read-out: Corn plant response rating. Summed up:
(§1)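 Seeds sprayed preemergence with a directed soil spray, or plants at 2 to 10 cm height and one- to two-leaf stage sprayed postemergence, with test chemicals in a non-phytotoxic solvent mixture containing surfactant, in loam soil–sand blend. Injury rated visually against untreated controls after about 10 d in greenhouse, 0 (no effect) to 100 (complete control).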

The subject of experiment [1] is ragweed (common ragweed, Ambrosia elatior). Kind of experiment: Test A postemergence. The note with it: Ambrosia artemisiifolia, post-emergence, 240 h, postemergence; for pest or weed control at 125 g/ha: 125 g ai/ha, visual injury vs untreated controls after approx. 10 d, 0 = no effect, 100 = complete control, read-out: Ragweed plant response rating (0 to 100 scale); for pest or weed control at 500 g/ha: 500 g ai/ha, 0 to 100 scale, 0 is no effect, 100 is complete control, read-out: Ragweed plant response rating. In outline:
as §1

Another experiment has as its system Kochia (Kochia scoparia). Put plainly: Test A postemergence. The following applies: Bassia scoparia, post-emergence, 240 h, postemergence; for pest or weed control at 125 g/ha: 125 g ai/ha, visual injury vs untreated controls after approx. 10 d, 0 = no effect, 100 = complete control, read-out: Kochia plant response rating (0 to 100 scale); for pest or weed control at 500 g/ha: 500 g ai/ha, 0 to 100 scale, 0 is no effect, 100 is complete control, read-out: Kochia plant response rating. In outline:
as §1

In experiment [2] the test system is wheat (Triticum aestivum). Put plainly: Test A postemergence. The following applies: Triticum aestivum, post-emergence, 240 h, 125 g ai/ha, postemergence, visual injury vs untreated controls after approx. 10 d; 0 = no effect, 100 = complete control; read-out: Wheat plant response rating (0 to 100 scale). In outline:
as §1

For experiment [3], the system named is barnyardgrass (Echinochloa crus-galli). Kind of experiment: Test A postemergence. The following applies: Echinochloa crus-galli, post-emergence, 240 h, postemergence; for pest or weed control at 125 g/ha: 125 g ai/ha, visual injury vs untreated controls after approx. 10 d, 0 = no effect, 100 = complete control, read-out: Barnyardgrass plant response rating (0 to 100 scale); for pest or weed control at 500 g/ha: 500 g ai/ha, 0 to 100 scale, 0 is no effect, 100 is complete control, read-out: Barnyardgrass plant response rating. Summed up: as §1

The test system of experiment [4] is ryegrass, Italian (Italian ryegrass, Lolium multiflorum). Kind of experiment: Test A postemergence. The note with it: Lolium multiflorum, post-emergence, 240 h, postemergence; for pest or weed control at 125 g/ha: 125 g ai/ha, visual injury vs untreated controls after approx. 10 d, 0 = no effect, 100 = complete control, read-out: Ryegrass, Italian plant response rating (0 to 100 scale); for pest or weed control at 500 g/ha: 500 g ai/ha, 0 to 100 scale, 0 is no effect, 100 is complete control, read-out: Ryegrass, Italian plant response rating. In outline:
as §1

Experiment [5] deals with giant foxtail (Setaria faberii). Kind of experiment: Test A postemergence. The note with it: Setaria faberi, post-emergence, 240 h, postemergence; for pest or weed control at 125 g/ha: 125 g ai/ha, visual injury vs untreated controls after approx. 10 d, 0 = no effect, 100 = complete control, read-out: Foxtail, Giant plant response rating (0 to 100 scale); for pest or weed control at 500 g/ha: 500 g ai/ha, 0 to 100 scale, 0 is no effect, 100 is complete control, read-out: Foxtail, Giant plant response rating. Summed up:
as §1

For experiment [6], the system named is blackgrass (Alopecurus myosuroides). Kind of experiment: Test A postemergence. The note with it: Alopecurus myosuroides, post-emergence, 240 h, postemergence; for pest or weed control at 125 g/ha: 125 g ai/ha, visual injury vs untreated controls after approx. 10 d, 0 = no effect, 100 = complete control, read-out: Blackgrass plant response rating (0 to 100 scale); for pest or weed control at 500 g/ha: 500 g ai/ha, 0 to 100 scale, 0 is no effect, 100 is complete control, read-out: Blackgrass plant response rating. Summed up:
as §1

Experiment [7] has as its system pigweed (Amaranthus retroflexus). Kind of experiment: Test A postemergence. The following applies: Amaranthus retroflexus, post-emergence, 240 h, postemergence; for pest or weed control at 125 g/ha: 125 g ai/ha, visual injury vs untreated controls after approx. 10 d, 0 = no effect, 100 = complete control, read-out: Pigweed plant response rating (0 to 100 scale); for pest or weed control at 500 g/ha: 500 g ai/ha, 0 to 100 scale, 0 is no effect, 100 is complete control, read-out: Pigweed plant response rating. In outline: as §1

Experiment [8] deals with Galium (catchweed bedstraw, Galium aparine). Kind of experiment: Test A postemergence. The following applies: Galium, post-emergence, 240 h, postemergence; for pest or weed control at 125 g/ha: 125 g ai/ha, visual injury vs untreated controls after approx. 10 d, 0 = no effect, 100 = complete control, read-out: Galium plant response rating (0 to 100 scale); for pest or weed control at 500 g/ha: 500 g ai/ha, 0 to 100 scale, 0 is no effect, 100 is complete control, read-out: Galium plant response rating. In outline: as §1

Experiment [9] concerns ducksalad (Heteranthera limosa). Kind of experiment: Test B flooded paddy test. The following applies: Heteranthera limosa, 250 g ai/ha, Flood; 0 to 100 scale where 0 is no effect and 100 is complete control; read-out: Ducksalad plant response rating. In outline:
(§2)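 2-leaf plants; pots flooded 3 cm over soil; cpd added to paddy water; depth held; greenhouse 13–15 d; visual rating vs controls, 0 = no effect, 100 = complete control.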

The subject of experiment [10] is sedge, umbrella (small-flower umbrella sedge, Cyperus difformis). Kind of experiment: Test B flooded paddy test. The note with it: Cyperus difformis, 250 g ai/ha, Flood; 0 to 100 scale where 0 is no effect and 100 is complete control; read-out: Sedge, Umbrella plant response rating. In outline:
as §2

For experiment [11], the system named is barnyardgrass (Echinochloa crus-galli). Kind of experiment: Test B flooded paddy test. The note with it: Echinochloa crus-galli, 250 g ai/ha, Flood; 0 to 100 scale where 0 is no effect and 100 is complete control; read-out: Barnyardgrass plant response rating. Summed up: as §2
A further experiment has as its system rice (Oryra sativa). Put plainly: Test B flooded paddy test. The note with it: Oryza sativa, 250 g ai/ha, Flood; 0 to 100 scale where 0 is no effect and 100 is complete control; read-out: Rice plant response rating. In outline:
as §2

`Cc1ccccc1NC(=O)[C@H]1C(=O)N(C)C[C@@H]1c1ccc(C(F)(F)F)cc1` [Compound 1239]: the values for the plant injury at 125 g/ha (in the experiment on corn (Zea mays); in experiment [2]) were 50% and 30%, respectively. Moreover, in the experiment on corn (Zea mays), the plant injury at 500 g/ha amounted to 70%. The pest or weed control at 125 g/ha in experiment [1] stood at 20%; with Kochia (Kochia scoparia), 40%; in experiment [3], 90%; in [4], 20%; in [5], 90%; in experiment [6], 70%. Besides, the pest or weed control at 125 g/ha came out at 50% in experiment [7] and 60% in [8]. Further, the pest or weed control at 500 g/ha in experiment [1] is 60%; in the experiment on Kochia (Kochia scoparia) it was 70%; in experiment [3] it was 80%; in experiment [4] it was 50%; in experiment [5], 90%; in experiment [6] it was 80%. The pest or weed control at 500 g/ha in experiment [7] was found to be 50%; in [8], 60%. Further, the pest or weed control at 250 g/ha worked out at 100% in experiment [9], 0% in experiment [10], 40% in [11] and 20% in the experiment with rice (Oryra sativa).
As to `O=C1NC[C@H](c2cccc(C(F)(F)F)c2)C1C(=O)Nc1c(F)cccc1CO` (stereo partly drawn) [Compound 1240], the plant injury at 125 g/ha (in the experiment on corn (Zea mays); in [2]) was 0% each time. Besides, in the experiment with corn (Zea mays), the plant injury at 500 g/ha was 0%. Moreover, the pest or weed control at 125 g/ha (in experiment [1]; in the experiment on Kochia (Kochia scoparia); in [3]; in experiment [4]; in [5]; in experiment [6]) was 0% each time. The pest or weed control at 125 g/ha in experiment [7] and in [8] was 0% throughout. Further, the pest or weed control at 500 g/ha (in experiment [1]; with Kochia (Kochia scoparia); in experiment [3]; in experiment [4]; in [5]; in experiment [6]) was 0% in each case. For the same compound, the pest or weed control at 500 g/ha in [7] and in experiment [8] was 0% each time. In addition, the pest or weed control at 250 g/ha (in [9]; in experiment [10]; in experiment [11]; with rice (Oryra sativa)) was 0% each time.
Take `O=C1NC[C@H](c2cccc(C(F)(F)F)c2)C1C(=O)Nc1ccccc1CO` (stereo partly drawn) [Compound 1244]: the plant injury at 125 g/ha (with corn (Zea mays); in [2]) was 0% in each case. In addition, in the experiment on corn (Zea mays), the plant injury at 500 g/ha was determined as 40%. Further, the pest or weed control at 125 g/ha in [1] was 0%; with Kochia (Kochia scoparia) it was 0%; in experiment [3], 50%; in [4] it was 0%; in [5], 50%; in experiment [6], 0%. The pest or weed control at 125 g/ha in [7] and in [8] was 0% each time. The pest or weed control at 500 g/ha turned out to be 0% in experiment [1]; 0% in the experiment on Kochia (Kochia scoparia); 80% in experiment [3]; 30% in [4]; 90% in experiment [5]; 50% in experiment [6]. The pest or weed control at 500 g/ha in experiment [7] was found to be 0%; in [8] it was 20%. For the same compound, the pest or weed control at 250 g/ha came out at 30% in experiment [9], 0% in [10], 20% in experiment [11] and 0% with rice (Oryra sativa).
